# pIC50: −log10 of the molar value. Where a name gives a salt, the structure may show the parent alone.
# Molecular target: CCR4 (Homo sapiens (Human), UniProt P51679)
# Assay: Calcium mobilization (Ca Flux) assay
# Format: cell-based
# Settings: not given
# Protocol: Calcium Mobilization Assay. Calcium mobilization experiments may be performed by labeling the human T-cell line CEM with […] dye (45 min at room temperature), washing with PBS, and re-suspending into flux buffer (HBSS with 1% FBS).
# Sequence of CCR4 (P51679 whole entry): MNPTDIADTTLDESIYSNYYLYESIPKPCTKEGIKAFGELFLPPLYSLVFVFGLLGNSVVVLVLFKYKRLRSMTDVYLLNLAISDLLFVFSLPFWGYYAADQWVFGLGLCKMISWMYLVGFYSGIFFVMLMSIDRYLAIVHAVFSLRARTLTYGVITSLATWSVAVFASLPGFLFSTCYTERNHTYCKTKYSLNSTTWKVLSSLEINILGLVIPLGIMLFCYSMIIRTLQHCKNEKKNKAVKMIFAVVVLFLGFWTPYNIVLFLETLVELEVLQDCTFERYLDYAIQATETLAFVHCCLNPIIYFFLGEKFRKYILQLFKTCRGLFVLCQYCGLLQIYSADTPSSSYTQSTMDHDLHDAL
row,pIC50,SMILES
1,6.30 to 7.00,"Cc1nn([C@H](C)c2ccc(Cl)cc2Cl)c2nc(N3CCC(N4CCC[C@H]4CCC(O)C(F)(F)F)C(C)C3)cnc12 (single isomer, unassigned) [Example 47, hydrochloride]"
2,6.30 to 7.00,"COC[C@@H]1CCCN1C1CC=C(c2cnc3c(C#N)nn([C@H](C)c4ccc(Cl)cc4Cl)c3n2)CC1C (mixture of isomers) [Example 84, 1-((R)-1-(2,4-Dichlorophenyl)ethyl)-6-(4-((S)-2-(methoxymethyl)pyrrolidin-1-yl)-5-methylcyclohex-1-en-1-yl)-1H-pyrazolo[3,4-b]pyrazine-3-carbonitrile hydrochloride]"
3,6.30 to 7.00,"Cc1nn([C@H](C)c2ccc(Cl)cc2F)c2nc(N3CC[C@H](N4CCC[C@H]4CCC(=O)O)[C@H](C)C3)cnc12 [Example 49, 3-((S)-1-((3R,4S)-1-(1-((R)-1-(4-Chloro-2-fluorophenyl)ethyl)-3-methyl-1H-pyrazolo[3,4-b]pyrazin-6-yl)-3-methylpiperidin-4-yl)pyrrolidin-2-yl)propanoic acid 2,2,2-trifluoroacetate]"
4,6.30 to 7.00,"C[C@H](c1ccc(Cl)cc1Cl)n1nc(C#N)c2ncc(C3=CC[C@@H](N4CCC[C@H]4CO)[C@@H](C)C3)nc21 [Example 75, 1-((R)-1-(2,4-Dichlorophenyl)ethyl)-6-((4R,5S)-4-((S)-2-(hydroxymethyl)pyrrolidin-1-yl)-5-methylcyclohex-1-en-1-yl)-1H-pyrazolo[3,4-b]pyrazine-3-carbonitrile]"
5,< 6.30,"CC1CN(c2cnc3c(C(F)(F)F)nn(C(C)c4ccc(Cl)cc4Cl)c3n2)CCC1N1CCCCC1 (stereo not drawn) [Example 10, 1-(1-(2,4-Dichlorophenyl)ethyl)-6-(3′-methyl-[1,4′-bipiperidin]-1′-yl)-3-(trifluoromethyl)-1H-pyrazolo[3,4-b]pyrazine hydrochloride]"
6,< 6.30,"COC(C[C@@H]1CCCN1C1CCN(c2cnc3c(C)nn([C@H](C)c4ccc(Cl)cc4Cl)c3n2)CC1C)C(=O)O (mixture of isomers) [Example 55, 3-((2S)-1-(1-(1-((R)-1-(2,4-Dichlorophenyl)ethyl)-3-methyl-1H-pyrazolo[3,4-b]pyrazin-6-yl)-3-methylpiperidin-4-yl)pyrrolidin-2-yl)-2-methoxypropanoic acid 2,2,2-trifluoroacetae]"
7,6.30 to 7.00,"C[C@@H]1CN(c2cnc3c(C#N)nn([C@H](C)c4ccc(Cl)cc4Cl)c3n2)CC[C@@H]1N1CCC[C@@H](CC(=O)O)C1 [Example 39, 2-((3S,3′R,4′S)-1′-(3-Cyano-1-((R)-1-(2,4-dichlorophenyl)ethyl)-1H-pyrazolo[3,4-b]pyrazin-6-yl)-3′-methyl-[1,4′-bipiperidin]-3-yl)acetic acid formate]"
8,6.30 to 7.00,"Cc1nn([C@H](C)c2ccc(Cl)cc2Cl)c2nc(C3=CCC(N4CCC[C@H]4CO)CC3)cnc12 (stereo partly drawn) [Example 68, ((2S)-1-(4-(1-((R)-1-(2,4-Dichlorophenyl)ethyl)-3-methyl-1H-pyrazolo[3,4-b]pyrazin-6-yl)cyclohex-3-en-1-yl)pyrrolidin-2-yl)methanol]"
9,6.30 to 7.00,"C[C@H](c1ccc(Cl)cc1Cl)n1nc(C#N)c2ncc(N3CCC(N4CCCC(CO)C4)CC3)nc21 (stereo partly drawn) [Example 62, 1-((R)-1-(2,4-Dichlorophenyl)ethyl)-6-(3-(hydroxymethyl)-[1,4′-bipiperidin]-1′-yl)-1H-pyrazolo[3,4-b]pyrazine-3-carbonitrile hydrochloride]"
10,6.30 to 7.00,"C[C@H](c1ccc(Cl)cc1Cl)n1nc(C#N)c2ncc(N3CC[C@@H](N4CCCCC4)[C@@H](CO)C3)nc21 [Example 28, 1-((R)-1-(2,4-Dichlorophenyl)ethyl)-6-((3′S,4′R)-3′-(hydroxymethyl)-[1,4′-bipiperidin]-1′-yl)-1H-pyrazolo[3,4-b]pyrazine-3-carbonitrile hydrochloride]"
11,> 7.00,"CC1CC(c2cnc3c(C#N)nn([C@H](C)c4ccc(Cl)cc4Cl)c3n2)=CCC1N1CCC[C@H]1CCC(=O)O (mixture of isomers) [Example 74, 3-((2S)-1-(4-(3-Cyano-1-((R)-1-(2,4-dichlorophenyl)ethyl)-1H-pyrazolo[3,4-b]pyrazin-6-yl)-6-methylcyclohex-3-en-1-yl)pyrrolidin-2-yl)propanoic acid 2,2,2-trifluoroacetate]"
12,< 6.30,"Cc1nn([C@H](C)c2ccc(Cl)cc2Cl)c2nc(N3CC[C@H](N4CCC[C@H]4C(=O)O)[C@H](C)C3)cnc12 [Example 34, ((3R,4S)-1-(1-((R)-1-(2,4-Dichlorophenyl)ethyl)-3-methyl-1H-pyrazolo[3,4-b]pyrazin-6-yl)-3-methylpiperidin-4-yl)-L-proline 2,2,2-trifluoroacetate]"
13,> 7.00,"C[C@@H]1CN(c2cnc3c(C#N)nn([C@H](C)c4ccc(Cl)cc4Cl)c3n2)CC[C@@H]1N1CCCCC1 [Example 23, 1-((R)-1-(2,4-Dichlorophenyl)ethyl)-6-((3′R,4′S)-3′-methyl-[1,4′-bipiperidin]-1′-yl)-1H-pyrazolo[3,4-b]pyrazine-3-carbonitrile hydrochloride]"

row,SMILES,pIC50
1,"Cc1nn([C@H](C)c2ccc(Cl)cc2Cl)c2nc(N3CCC(N4CCC[C@H]4CCN)[C@H](C)C3)cnc12 (stereo partly drawn) [Example 45, 3-((R)-1-((3R,4S)-1-(1-((R)-1-(2,4-Dichlorophenyl)ethyl)-3-methyl-1H-pyrazolo[3,4-b]pyrazin-6-yl)-3-methylpiperidin-4-yl)pyrrolidin-2-yl)ethan-1-amine]",6.30 to 7.00

# Same assay, conditions: hydrochloride
row,pIC50,SMILES
1,< 6.30,"Cc1nn([C@H](C)c2ccc(Cl)cc2Cl)c2nc(C3=CCC(N4CCC[C@H]4CCC(=O)O)C(C)C3)cnc12 (stereo in doubt) [Example 72, 3-((S)-1-((1R,6S)-4-(1-((R)-1-(2,4-Dichlorophenyl)ethyl)-3-methyl-1H-pyrazolo[3,4-b]pyrazin-6-yl)-6-methylcyclohex-3-en-1-yl)pyrrolidin-2-yl)propanoic acid hydrochloride]"
